In article PMC10673369, “Preliminary SAR of Novel Pleuromutilin–Polyamine Conjugates” (Microorganisms, 2023):
Values after ≈ are worked out from the molar mass of the structure shown.

What was measured:
[1] = tested on: E. coli ATCC 25922; test: MIC, broth dilution, E. coli; type: cell-based, Escherichia coli; settings: for MIC: Escherichia coli, ATCC25922, mean (n = 3)
Method: (§1) The susceptibility of bacterial strains S. aureus (ATCC 25923), E. coli (ATCC 25922), and P. aeruginosa (ATCC 27853 or PAO1) to antibiotics and compounds was determined using reported protocols. Additional antimicrobial evaluation against MRSA (ATCC 43300), Klebsiella pneumoniae (ATCC 700603), A. baumannii (ATCC 19606), Candida albicans (ATCC 90028), and Cryptococcus neoformans (ATCC 208821) was undertaken at the Community for Open Antimicrobial Drug Discovery at The University of Queensland (Australia) according to their standard protocols as reported previously. […]
(§2) 2.3. Antimicrobial Assays
The susceptibility of bacterial strains S. aureus (ATCC 25923), E. coli (ATCC 25922), and P. aeruginosa (ATCC 27853 or PAO1) to antibiotics and compounds was determined in microplates using the standard broth dilution method in accordance with the recommendations of the Comité de l’AntibioGramme de la Société Française de Microbiologie (CA-SFM). Briefly, the minimal inhibitory concentrations (MICs) were determined with an inoculum of 10^5 CFU in 200 µL of Mueller–Hinton broth (MHB) containing two-fold serial dilutions of each drug. The MIC was defined as the lowest […]
determine all MICs, the measurements were independently repeated in triplicate. Additional antimicrobial evaluation against MRSA (ATCC 43300), Klebsiella pneumoniae (ATCC 700603), A. baumannii (ATCC 19606), Candida albicans (ATCC 90028), and Cryptococcus neoformans (ATCC 208821) was undertaken at the Community for Open Antimicrobial Drug Discovery at The University of Queensland (Australia) according to their standard protocols as reported previously. […]

[2] = tested on: A. baumannii ATCC 19606; test: MIC, CO-ADD broth microdilution, A. baumannii; type: cell-based; settings: for MIC: Acinetobacter baumannii, ATCC19606, mean (n = 2)
Method: as §1, §2
(§3) The susceptibility of bacterial strains S. aureus (ATCC 25923), E. coli (ATCC 25922), and P. […]
baumannii (ATCC 19606), Candida albicans (ATCC 90028), and Cryptococcus neoformans (ATCC 208821) was undertaken at the Community for Open Antimicrobial Drug Discovery at The University of Queensland (Australia) according to their standard protocols as reported previously. For antimicrobial assays, the tested strains were cultured in either Luria broth (LB) (In Vitro Technologies, USB75852), nutrient broth (NB) (Becton Dickson, 234000), or MHB at 37 °C overnight. A sample of culture was then diluted 40-fold in fresh MHB and incubated at 37 °C for 1.5−2 h. The compounds were serially diluted 2-fold across the wells of 96-well plates (Corning 3641, non-binding surface), with compound concentrations ranging from 0.015 to 64 µg/ mL, and plated in duplicate. The resultant mid-log phase cultures were diluted to the final concentration of 1 × 10^6 CFU/mL; then, 50 µL was added to each well of the compound-containing plates, giving a final compound concentration range of 0.008 to 32 µg/mL and a cell density of 5 × 10^5 CFU/mL. All plates were then covered and incubated at 37 °C for 18 h. Resazurin was added at 0.001% final concentration to each well and incubated for 2 h before MICs […]
For C. neoformans, resazurin was added at 0.006% final concentration to each well and incubated for a further 3 h before MICs were determined by measuring […]
(§4) Colistin and vancomycin were used as positive bacterial inhibitor standards for Gram-negative and Gram-positive bacteria, respectively. Fluconazole was used as a positive fungal inhibitor standard for C. albicans and C. neoformans. The antibiotics were provided in […], with 3 above and 3 below its MIC value, and plated into the first 8 wells of column 23 of the 384-well NBS plates. The quality control (QC) of the assays was determined by the antimicrobial controls and the Z'-factor (using positive and negative controls). Each plate was deemed to fulfil the quality criteria (pass QC) if the Z'- […]
(§5) inhibition at their highest concentration, and no growth inhibition at their lowest concentration.
(§6) 2.4. Determination of the MICs of Antibiotics in the Presence of Synergizing Compounds

[3] = tested on: C. albicans ATCC 90028; test: MIC, CO-ADD antifungal assay, C. albicans; type: cell-based, Candida albicans; settings: for MIC: Candida albicans, ATCC90028, mean (n = 2)
Method: as §1, §2, §3
baumannii (ATCC 19606), Candida albicans (ATCC 90028), and Cryptococcus neoformans (ATCC 208821) was undertaken at the Community for Open Antimicrobial Drug Discovery at The University of Queensland (Australia) according to their standard protocols as reported previously. […]
For the antifungal assay, fungi strains were cultured for 3 days on YPD agar at 30 °C. A yeast suspension of 1 × 106 to 5 × 10^6 CFU/mL was prepared from five colonies. These stock suspensions were diluted with yeast nitrogen base (YNB) (Becton Dickinson, 233520) broth to a final concentration of 2.5 × 10^3 CFU/mL. The compounds were serially diluted 2-fold across the wells of 96-well plates (Corning 3641, non-binding surface), with compound concentrations ranging from 0.015 to 64 µg/mL and final volumes of 50 µL, plated in duplicate. Then, 50 µL of the fungi suspension that was previously prepared in YNB broth to the final concentration of 2.5 × 10^3 CFU/mL was added to each well of the compound-containing plates, giving a final compound concentration range of 0.008 to 32 µg/mL. Plates were covered and incubated at 35 °C for 36 h without shaking. C. albicans MICs were determined by measuring the absorbance at OD530. For C. neoformans, resazurin was added at 0.006% final concentration to each well and incubated for a further 3 h before MICs were determined by measuring […]
as §4, §5, §6

Row | Compound | MIC [1] | MIC E.c. ([1]; mean (n = 3)) | MIC [2] | MIC A.b. ([2]; mean (n = 2)) | MIC [3] | MIC C.a. ([3]; mean (n = 2))
1 | C=C[C@]1(C)C[C@@H](OC(=O)CSCCN(CC)CC)[C@]2(C)[C@H](C)CC[C@]3(CCC(=O)[C@H]32)[C@@H](C)[C@@H]1O [Compound 2, Tiamulin, reference compound] | 200 µM (≈ 98.8 µg/mL) | no activity | > 64.8 µM | no activity | > 64.8 µM | no activity
2 | C=C[C@]1(C)C[C@@H](OC(=O)CNCCCNCCCCNCCCNCC(=O)O[C@@H]2C[C@@](C)(C=C)[C@@H](O)[C@H](C)[C@]34CCC(=O)[C@H]3[C@@]2(C)[C@H](C)CC4)[C@]2(C)[C@H](C)CC[C@]3(CCC(=O)[C@H]32)[C@@H](C)[C@@H]1O.O=C(O)C(F)(F)F.O=C(O)C(F)(F)F.O=C(O)C(F)(F)F.O=C(O)C(F)(F)F [Compound 9a, N^1,N^1′-(Butane-1,4-diyl)bis(N^3-(2-(((3aR,4R,5R,7S,8S,9R,9aS,12R)-8-hydroxy-4,7,9,12-tetramethyl-3-oxo-7-vinyldecahydro-4,9a-propanocyclopenta [8]annulen-5-yl)oxy)-2-oxoethyl)propane-1,3-diaminium) 2,2,2-trifluoroacetate] | 18.1 µM |  | > 23.2 µM |  | > 23.2 µM | 
3 | C=C[C@]1(C)C[C@@H](OC(=O)CNCCCNCCCCCCNCCCNCC(=O)O[C@@H]2C[C@@](C)(C=C)[C@@H](O)[C@H](C)[C@]34CCC(=O)[C@H]3[C@@]2(C)[C@H](C)CC4)[C@]2(C)[C@H](C)CC[C@]3(CCC(=O)[C@H]32)[C@@H](C)[C@@H]1O.O=C(O)C(F)(F)F.O=C(O)C(F)(F)F.O=C(O)C(F)(F)F.O=C(O)C(F)(F)F [Compound 9b, N^1,N^1′-(Hexane-1,6-diyl)bis(N^3-(2-(((3aR,4R,5R,7S,8S,9R,9aS,12R)-8-hydroxy-4,7,9,12-tetramethyl-3-oxo-7-vinyldecahydro-4,9a-propanocyclopenta [8]annulen-5-yl)oxy)-2-oxoethyl)propane-1,3-diaminium) 2,2,2-trifluoroacetate] | 8.88 µM |  | > 22.7 µM |  | > 22.7 µM | 
4 | C=C[C@]1(C)C[C@@H](OC(=O)CNCCCNCCCCCCCNCCCNCC(=O)O[C@@H]2C[C@@](C)(C=C)[C@@H](O)[C@H](C)[C@]34CCC(=O)[C@H]3[C@@]2(C)[C@H](C)CC4)[C@]2(C)[C@H](C)CC[C@]3(CCC(=O)[C@H]32)[C@@H](C)[C@@H]1O.O=C(O)C(F)(F)F.O=C(O)C(F)(F)F.O=C(O)C(F)(F)F.O=C(O)C(F)(F)F [Compound 9c, N^1,N^1′-(Heptane-1,7-diyl)bis(N^3-(2-(((3aR,4R,5R,7S,8S,9R,9aS,12R)-8-hydroxy-4,7,9,12-tetramethyl-3-oxo-7-vinyldecahydro-4,9a-propanocyclopenta [8]annulen-5-yl)oxy)-2-oxoethyl)propane-1,3-diaminium) 2,2,2-trifluoroacetate] | 35.2 µM |  | > 22.5 µM |  | > 22.5 µM | 
5 | C=C[C@]1(C)C[C@@H](OC(=O)CNCCCNCCCCCCCCNCCCNCC(=O)O[C@@H]2C[C@@](C)(C=C)[C@@H](O)[C@H](C)[C@]34CCC(=O)[C@H]3[C@@]2(C)[C@H](C)CC4)[C@]2(C)[C@H](C)CC[C@]3(CCC(=O)[C@H]32)[C@@H](C)[C@@H]1O.O=C(O)C(F)(F)F.O=C(O)C(F)(F)F.O=C(O)C(F)(F)F.O=C(O)C(F)(F)F [Compound 9d, N^1,N^1′-(Octane-1,8-diyl)bis(N^3-(2-(((3aR,4R,5R,7S,8S,9R,9aS,12R)-8-hydroxy-4,7,9,12-tetramethyl-3-oxo-7-vinyldecahydro-4,9a-propanocyclopenta [8]annulen-5-yl)oxy)-2-oxoethyl)propane-1,3-diaminium) 2,2,2-trifluoroacetate] | 70 µM |  | > 22.3 µM |  | > 22.3 µM | 
6 | C=C[C@]1(C)C[C@@H](OC(=O)CNCCCNCCCCCCCCCCNCCCNCC(=O)O[C@@H]2C[C@@](C)(C=C)[C@@H](O)[C@H](C)[C@]34CCC(=O)[C@H]3[C@@]2(C)[C@H](C)CC4)[C@]2(C)[C@H](C)CC[C@]3(CCC(=O)[C@H]32)[C@@H](C)[C@@H]1O.O=C(O)C(F)(F)F.O=C(O)C(F)(F)F.O=C(O)C(F)(F)F.O=C(O)C(F)(F)F [Compound 9e, N^1,N^1′-(Decane-1,10-diyl)bis(N^3-(2-(((3aR,4R,5R,7S,8S,9R,9aS,12R)-8-hydroxy-4,7,9,12-tetramethyl-3-oxo-7-vinyldecahydro-4,9a-propanocyclopenta [8]annulen-5-yl)oxy)-2-oxoethyl)propane-1,3-diaminium) 2,2,2-trifluoroacetate] | 4.27 µM |  | > 21.9 µM |  | 10.9 µM | 
7 | C=C[C@]1(C)C[C@@H](OC(=O)CNCCCNCCCCCCCCCCCCNCCCNCC(=O)O[C@@H]2C[C@@](C)(C=C)[C@@H](O)[C@H](C)[C@]34CCC(=O)[C@H]3[C@@]2(C)[C@H](C)CC4)[C@]2(C)[C@H](C)CC[C@]3(CCC(=O)[C@H]32)[C@@H](C)[C@@H]1O.O=C(O)C(F)(F)F.O=C(O)C(F)(F)F.O=C(O)C(F)(F)F.O=C(O)C(F)(F)F [Compound 9f, N^1,N^1′-(Dodecane-1,12-diyl)bis(N^3-(2-(((3aR,4R,5R,7S,8S,9R,9aS,12R)-8-hydroxy-4,7,9,12-tetramethyl-3-oxo-7-vinyldecahydro-4,9a-propanocyclopenta [8]annulen-5-yl)oxy)-2-oxoethyl)propane-1,3-diaminium) 2,2,2-trifluoroacetate] | 4.19 µM |  | 2.7 µM |  | 21.5 µM | 
